Values quoted from earlier work as cited in article PMC2853223 (ACS chemical biology, 2009).

System: DEBS 3
Settings: mismatched PikAII/DEBS 3 pairing

PiKAII: pikromycin PKS protein PikAII, paired with DEBS 3 in vivo
association and transfer with DEBS 3 in vivo: productive association and transfer
